According to patent US10322140B2, “Preparation and use of 7a-heterocycle substituted-6,6-difluoro bicyclic himbacine derivatives as PAR-1 receptor antagonists” (Merck Sharp & Dohme Corp., priority 2013, dated 2019):

Columns and labels:
PAR-1 receptor = PAR-1 receptor (Homo sapiens (Human), UniProt P25116); test: PAR-1 FLIPR Assay; assay type: cell-based; conditions: HEK 293 cells, calcium signal after PAR-1 selective receptor-activating peptide at EC80
Method: This assay measures the potency of the inventive compounds as PAR-1 receptor antagonists.
Frozen HEK 293 Cells were plated in 384-well PDL coated plates at 12000 cells/well in 50 uL of DMEM media containing 10% FBS, pen/strep/L-Glutamine and non-essential amino acids, incubated overnight at 37° C./5% CO2. Media was then removed from the cells, incubated with 33 uL of Calcium-5 dye in assay buffer (Hank's buffer containing 20 mM HEPES, 0.04% Chaps and 2.5 mM Probenecid) for 60 minutes at 37° C. 2 uL of varying concentrations of compound in 40% DMSO in assay buffer (final DMSO concentration is […]) were then added to the cells and incubated at 25° C. for 30 minutes. The plates were added to the FLIPR Tetra®, the device added 5 μL of PAR-1 selective receptor-activating peptide (sequence Ala-parafluoroPhe-Arg-Cha-Cit-Try-NH2, prepared in water) at a concentration equal to the effective concentration that achieved 80% activation of signaling on the day of the experiment. The range of peptide was from 1.5-3 μM. The final volume is 40 uL/well, with 2% DMSO. The FLIPR was read at an excitation wavelength of 480 nm and an emission wavelength of 535 nm, and performed 60 scans over a 1-2 min reading time. The data were analyzed by taking the peak signal over a portion of the range of the 60 scans and dividing this signal by the minimum signal for that same range. The data were expressed as percent inhibition of the maximum divided by the minimum signal achieved at 80% activation produced by the PAR1 activating peptide on the test day. The compounds of Examples 1-13 were tested in the assay described above and the data collected for these compounds is provided.

CYP3A4 = CYP3A4 (Homo sapiens (Human), UniProt P08684); test: CYP MUX (3A4) RI; assay type: in vitro ADME; conditions: human liver microsomes, substrate testosterone, 37° C. 10 min
Source text: This assay measures inhibition of CYP3A4 by a compound. Cytochromes P450 (CYPs) constitute a superfamily of heme-containing enzymes that recognize and metabolize a large number structurally diverse xenobiotics in the human body. CYP3A4 constitutes the largest portion of CYP enzymes in the liver that accounts for the metabolism of almost 50% of all drugs. This assay is used to evaluate the potential of a compound for developing DDIs. (Clarke, S. E.; Jones B. C. Drug-Drug Interactions, New York: Marcel Dekker; 2002. pp. 53-88).
Compound dilutions and assay-ready plates were prepared on a TTP Labtech mosquito® HTS. Assay conduction was fully automated on a customized Screening Platform from Caliper (now PerkinElmer) containing a Mitsubishi robotic plate handler, Liconic incubators, a Caliper Zephyr® liquid handling workstation equipped with temperature-controlled deck positions, a Biotek MultiFlo™ dispenser and an Agilent PlateLoc heat sealer. Assay plates were Corning Costar® 384 well PP plates. High throughput mass spectrometric readout was performed on a RapidFire® 300 system coupled to an AB Sciex API 4000™ triple quadrupole device. CYP isoform 3A4 was incubated in a separate reaction of 50 μL final volume. 25 μL of HLM (human liver microsomes, BD UltraPool™ 150, 0.25 mg/mL final concentration) and the respective substrate, testosterone (75 μM) for 3A4, in potassium phosphate buffer (100 mM, pH=7.4) were added to 250 nL of stamped compound solution (10 mM in DMSO). The reactions were started upon addition of 25 μL of a co-factor solution containing magnesium chloride (3.3 mM), glucose-6-phosphate (3.3 mM), glucose-6-phosphate dehydrogenase (1.4 units) and NADP (1 mM) in potassium phosphate buffer (100 mM, pH=7.4) and incubated on deck at 37° C. for 10 min. 8 μL of each reaction were transferred to the same readout plated filled with 48 μL of stop solution containing internal standards (concentration in final readout plate), 6-hydroxytestosterone-D7 (0.5 μM), 4′-hydroxydiclofenac-D4 (0.2 and dextrorphan-D3 (0.01 in acetonitrile with 0.5% formic acid. After heat sealing, plates were stored at −20° C. for at least 30 min, centrifuged and subjected directly to RapidFire®/MS analysis.

Chain of PAR-1 receptor (P25116 22-425): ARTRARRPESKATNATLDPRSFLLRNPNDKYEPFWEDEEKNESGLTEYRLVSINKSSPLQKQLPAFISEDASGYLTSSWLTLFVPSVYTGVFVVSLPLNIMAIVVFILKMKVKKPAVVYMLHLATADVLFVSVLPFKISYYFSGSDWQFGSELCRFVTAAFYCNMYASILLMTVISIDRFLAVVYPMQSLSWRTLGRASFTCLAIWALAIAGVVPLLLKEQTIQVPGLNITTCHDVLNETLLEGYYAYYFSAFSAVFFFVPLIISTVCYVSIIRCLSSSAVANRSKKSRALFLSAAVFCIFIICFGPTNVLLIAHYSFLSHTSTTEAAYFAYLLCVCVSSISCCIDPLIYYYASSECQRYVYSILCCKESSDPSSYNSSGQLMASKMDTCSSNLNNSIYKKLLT
Chain of CYP3A4 (P08684 whole entry): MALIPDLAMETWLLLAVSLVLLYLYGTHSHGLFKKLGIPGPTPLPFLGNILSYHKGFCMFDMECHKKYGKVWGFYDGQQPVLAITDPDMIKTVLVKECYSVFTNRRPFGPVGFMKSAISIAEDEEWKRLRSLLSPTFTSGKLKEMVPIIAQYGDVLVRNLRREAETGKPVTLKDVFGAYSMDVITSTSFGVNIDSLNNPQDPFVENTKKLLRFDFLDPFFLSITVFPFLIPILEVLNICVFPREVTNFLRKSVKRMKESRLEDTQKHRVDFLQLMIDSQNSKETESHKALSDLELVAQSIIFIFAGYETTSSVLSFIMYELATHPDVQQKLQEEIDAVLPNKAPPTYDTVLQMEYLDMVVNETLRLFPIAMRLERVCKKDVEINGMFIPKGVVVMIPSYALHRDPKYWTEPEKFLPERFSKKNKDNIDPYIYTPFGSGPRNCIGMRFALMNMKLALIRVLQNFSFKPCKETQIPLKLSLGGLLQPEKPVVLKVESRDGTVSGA

| Structure (SMILES) | IC50 (PAR-1 receptor) | IC50 (CYP3A4) |
| --- | --- | --- |
| Cc1cccc(-c2ccc(/C=C/[C@@H]3[C@@H]4[C@@H](C)OC(=O)[C@]4(c4nnc(N)o4)CC(F)(F)[C@H]3C)nc2)c1C#N [Example 3, 2-(6-((E)-2-((3R,3aS,4R,5S,7aR)-7a-(5-amino-1,3,4-oxadiazol-2-yl)-6,6-difluoro-3,5-dimethyl-1-oxooctahydroisobenzofuran-4-yl)vinyl)pyridin-3-yl)-6-methylbenzonitrile] | 1.22 nM | 10400 nM |
| Cc1cccc(-c2ccc(/C=C/[C@@H]3[C@@H]4[C@@H](C)OC(=O)[C@]4(c4cc(C)n(C)n4)CC(F)(F)[C@H]3C)nc2)c1C#N [Example 11] | 6.3 nM | 17600 nM |
| Cc1cccc(-c2ccc(/C=C/[C@@H]3[C@@H]4[C@@H](C)OC(=O)[C@]4(c4nnc(-c5ccccc5)o4)CC(F)(F)[C@H]3C)nc2)c1C#N [Example 7] | 5.01 nM |  |
| Cc1nnc([C@@]23CC(F)(F)[C@@H](C)[C@H](/C=C/c4ccc(-c5cccc(C)c5C#N)cn4)[C@@H]2[C@@H](C)OC3=O)o1 [Example 5, 2-(6-((E)-2-((3R,3aS,4R,5S,7aR)-6,6-difluoro-3,5-dimethyl-7a-(5-methyl-1,3,4-oxadiazol-2-yl)-1-oxooctahydroisobenzofuran-4-yl)vinyl)pyridin-3-yl)-6-methylbenzonitrile] | 2.45 nM | 16900 nM |
| C[C@H]1OC(=O)[C@]2(c3n[nH]c(=O)o3)CC(F)(F)[C@@H](C)[C@H](/C=C/c3ccc(-c4cccc(F)c4)cn3)[C@H]12 [Example 8, 5-((1R,3aR,6S,7R,7aS)-5,5-difluoro-7-((E)-2-(5-(3-fluorophenyl)pyridin-2-yl)vinyl)-1,6-dimethyl-3-oxooctahydroisobenzofuran-3a-yl)-1,3,4-oxadiazol-2(3H)-one] | 28.7 nM |  |
| Cc1cccc(-c2ccc(/C=C/[C@@H]3[C@@H]4[C@@H](C)OC(=O)[C@]4(c4n[nH]c(=O)o4)CC(F)(F)[C@H]3C)nc2)c1C#N [Example 2, 2-(6-((E)-2-((3R,3aS,4R,5S,7aR)-6,6-difluoro-3,5-dimethyl-1-oxo-7a-(5-oxo-4,5-dihydro-1,3,4-oxadiazol-2-yl)octahydroisobenzofuran-4-yl)vinyl)pyridin-3-yl)-6-methylbenzonitrile] | 1.34 nM | 22800 nM |

The remaining molecules from weak to strong by IC50 (PAR-1 receptor), led by results:

| IC50 (PAR-1 receptor) | IC50 (CYP3A4) | Structure (SMILES) |
| --- | --- | --- |
| 25.3 nM | ≥ 50000 nM | C[C@H]1OC(=O)[C@]2(c3cc(C(C)(C)C)n(C)n3)CC(F)(F)[C@@H](C)[C@H](/C=C/c3ccc(-c4ccccc4C#N)cn3)[C@H]12 [Example 10, 2-(6-((E)-2-((3R,3aS,4R,5S,7aR)-7a-(5-(tert-butyl)-1-methyl-1H-pyrazol-3-yl)-6,6-difluoro-3,5-dimethyl-1-oxooctahydroisobenzofuran-4-yl)vinyl)pyridin-3-yl)benzonitrile] |
| 14.5 nM |  | C[C@H]1OC(=O)[C@]2(c3cc(C(C)(C)C)[nH]n3)CC(F)(F)[C@@H](C)[C@H](/C=C/c3ccc(-c4ccccc4C#N)cn3)[C@H]12 [Example 9, 2-(6-((E)-2-((3R,3aS,4R,5S,7aR)-7a-(5-(tert-butyl)-1H-pyrazol-3-yl)-6,6-difluoro-3,5-dimethyl-1-oxooctahydroisobenzofuran-4-yl)vinyl)pyridin-3-yl)benzonitrile] |
| 6.2 nM | 8800 nM | C[C@H]1OC(=O)[C@]2(c3cc[nH]n3)CC(F)(F)[C@@H](C)[C@H](/C=C/c3ccc(-c4cccnc4C#N)cn3)[C@H]12 [Example 13, 6′-((E)-2-((3R,3aS,4R,5S,7aR)-6,6-difluoro-3,5-dimethyl-1-oxo-7a-(1H-pyrazol-3-yl)octahydroisobenzofuran-4-yl)vinyl)-[3,3′-bipyridine]-2-carbonitrile] |
| 4.22 nM | 21800 nM | C[C@H]1OC(=O)[C@]2(c3n[nH]c(=O)o3)CC(F)(F)[C@@H](C)[C@H](/C=C/c3ccc(-c4ccccc4C#N)cn3)[C@H]12 [Example 1, 2-(6-((E)-2-((3R,3aS,4R,5S,7aR)-6,6-difluoro-3,5-dimethyl-1-oxo-7a-(5-oxo-4,5-dihydro-1,3,4-oxadiazol-2-yl)octahydroisobenzofuran-4-yl)vinyl)pyridin-3-yl)benzonitrile] |
| 3.08 nM | 9900 nM | C[C@H]1OC(=O)[C@]2(c3nnc(N)o3)CC(F)(F)[C@@H](C)[C@H](/C=C/c3ccc(-c4ccccc4C#N)cn3)[C@H]12 [Example 4, 2-(6-((E)-2-((3R,3aS,4R,5S,7aR)-7a-(5-amino-1,3,4-oxadiazol-2-yl)-6,6-difluoro-3,5-dimethyl-1-oxooctahydroisobenzofuran-4-yl)vinyl)pyridin-3-yl)benzonitrile] |
| 2.07 nM |  | Cc1cccc(-c2ccc(/C=C/[C@@H]3[C@@H]4[C@@H](C)OC(=O)[C@]4(c4nnc(C5CC5)o4)CC(F)(F)[C@H]3C)nc2)c1C#N [Example 6, 2-(6-((E)-2-((3R,3aS,4R,5S,7aR)-7a-(5-cyclopropyl-1,3,4-oxadiazol-2-yl)-6,6-difluoro-3,5-dimethyl-1-oxooctahydroisobenzofuran-4-yl)vinyl)pyridin-3-yl)-6-methylbenzonitrile] |
| 0.99 nM | 2400 nM | C[C@H]1OC(=O)[C@]2(c3cc[nH]n3)CC(F)(F)[C@@H](C)[C@H](/C=C/c3ccc(-c4ccccc4C#N)cn3)[C@H]12 [Example 12, 2-(6-((E)-2-((3R,3aS,4R,5S,7aR)-6,6-difluoro-3,5-dimethyl-1-oxo-7a-(1H-pyrazol-3-yl)octa hydroisobenzofuran-4-yl)vinyl)pyridin-3-yl)benzonitrile] |
